Tested on: HL-60
Experiment: Cell killing in HL-60 by CCK-8
Format: cell-based
Conditions: HL-60, 48 h
Procedure: • a) Cell line: HL-60 • b) Procedure • (1) Normally cultured HL-60 cells in the logarithmic growth phase were centrifuged at 800 rpm for 5 min to discard the supernatant. Approximately 3 mL of normal medium was added to resuspend the cell pellet by gently pipetting up and down. The cells were then counted using a cell counter and inoculated onto a 96-well plate. • (2) Sample solutions with different concentration gradients were prepared. Approximately 10 µL of each solution was added to the 96-well plate, with 3 to 6 replicate wells for each concentration, and incubated in a 5% CO2 incubator at 37°C for 48 h. • (3) CCK-8 was equilibrated to room temperature before use, and 10 µL of CCK-8 solution was added to each well. • (4) The plate was incubated in the incubator for 0.5-4 h in the dark, with the incubation time depending on experimental conditions such as cell type and density. • (5) The absorbance was measured at 450 nm using a microplate reader. • c) Data analysis Cell viability = [(As−Ab)/(Ac−Ab)] × 100% [formula] Inhibition% = [(Ac−As)/(Ac−Ab)] × 100% [formula] • As: absorbance of sample well (containing cells + medium + CCK-8 solution + drug solution); • Ac: absorbance of control well (containing cells + medium + CCK-8 solution); • Ab: absorbance of blank well (containing medium + CCK-8 solution); • The results were processed and analyzed using Excel and Graphpad Prism to obtain the IC50. Table 4: Test Results of Cell Killing in HL-60 for 48 h

For `CC[C@H](C)[C@@H]([C@@H](CC(=O)N1CCC[C@H]1[C@H](OC)[C@@H](C)C(=O)N[C@H](C)[C@@H](O)c1ccccc1)OC)N(C)C(=O)[C@@H](NC(=O)[C@H](C(C)C)N(C)C(=O)OCc1ccc(NC(=O)[C@H](CCCNC(N)=O)NC(=O)[C@@H](NC(=O)CCCCCN2C(=O)CC(SC[C@H](NC(C)=O)C(=O)NCCOCCOCC(=O)N[C@@H](CCCNC(=N)N)C(=O)N[C@@H](CCCNC(=N)N)C(=O)N[C@@H](CC(C)C)C(=O)N[C@@H](Cc3ccccc3)C(=O)N[C@H]3CSSC[C@@H](C(=O)N[C@H](C(=O)N[C@@H](Cc4c[nH]c5ccccc45)C(=O)N[C@@H](CCCNC(=N)N)C(=O)N[C@@H](CC(=O)O)C(N)=O)[C@@H](C)O)NC(=O)[C@H]([C@@H](C)O)NC(=O)[C@H](CCCCN)NC(=O)[C@@H](Cc4c[nH]c5ccccc45)NC(=O)[C@H](Cc4ccc(O)cc4)NC3=O)C2=O)C(C)C)cc1)C(C)C` (single isomer, unassigned) [Example 10, Ac-Cys(MC-Val-Cit-PABC-MMAE)-AEEA-Arg-Arg-Leu-Phe-[Cys-Tyr-D-Trp-Lys-Thr-Cys]-Thr-Trp-Arg-Asp-NH2], the “Bottom (Inhibition at Lowest Point)” value was -2.25, the IC50 was 187 nM and the “Top (Inhibition at Highest Point)” value was 90.08.
